Patent publication US20030171371A1, “Immunosuppressant n-acyles homoserine lactones” (priority 2000, published 2003)

Tests used:
murine splenocytes = test: ConA mitogen-stimulated proliferation of murine splenocytes ([3H]-thymidine incorporation); assay type: cell-based, mouse (BALB/c); conditions: for effect on ConA induced splenocyte proliferation (cpm vs concentration): FIG. 1
Procedure: Proliferation was assessed by the incorporation of [^3H]-thymidine into DNA. Eight-week-old female BALB/c mice were obtained from Harlan (Bicester, Oxon, UK) and given food and water ad libitum. Splenocyte suspensions were prepared by removing the spleens and placing them into RPMI 1640 medium. The spleens were forced through 70-μm-pore-size wire gauzes using the plunger from a 5-ml syringe to produce a single cell suspension. […] Leucocytes were washed twice with RPMI 1640 medium with 2% (vol/vol) foetal calf serum (FCS) and resuspended in complete cell culture medium (CTCM) consisting of RPMI 1640 medium with 5% FCS, 2 mM L-glutamine, and 5×10^−5 M 2-mercaptoethanol. HSL compounds were tested at doubling down dilutions ranging from 1 mM to 0.1 μM in a final volume of 200 μl of CTCM, containing ConA (Sigma, Poole, UK) at 1 μg/ml and 100,000 spleen cells. Following incubation for 48 h at 37° C. in 5% CO2-air, 0.25 μCi [^3H]-thymidine (Amersham) in 10 μl volume made up in RPMI 1640 medium was added and the cells were incubated for a further 24 h. Cells were harvested onto fibreglass filters with a Packard filtermate harvester. After the addition of 25 μl of MicroScint-O (Packard) to each well the filters were counted with the Packard TopCount scintillation counter.
Mitogen (Concanavalin A) induced murine splenocyte proliferation was indicated by the incorporation of tritated thymidine into the DNA in the mouse spleen cells as shown by counts per minute using the scintillation counter. The inhibitory effect of an HSL compound being tested on cell proliferation was indicated by a reduction in counts per minute.

human PBMC = test: ConA mitogen-stimulated proliferation of human PBMC ([3H]-thymidine incorporation); assay type: cell-based; conditions: FIG. 2
Procedure: II. ConA Mitogen-Stimulated Proliferation of Human PBMC
Blood specimens were obtained with consent from healthy human volunteers. Human peripheral blood mononuclear cells (PBMC) were isolated from heparinised whole blood by buoyant density centrifugation over Histopaque 1077 (Sigma, Poole, UK) at 600 g for 20 minutes. PBMC harvested from the ‘buffy’ layers were washed twice with RPMI 1640 medium and resuspended in CTCM. HSL compounds were tested at similar dilutions as for murine splenocytes in 200 μl of CTCM, containing 1 μg/ml of ConA and 100,000 PBMC. Human PBMC were incubated for 48 h at 37° C. in 5% CO2-air, followed by pulsing with 0.25 μCi [^3H]-thymidine (see above). After a further incubation of 24 h cells were harvested onto fibreglass filters and then counted in the presence of MicroScint-O with the Packard TopCount.
Concanavalin induced cell proliferation of human peripheral blood mononuclear cells (PBMC) was tracked, as described in I above, by a measurement of counts per minute using the scintillation counter. The inhibitory effect of an HSL compound being tested on cell proliferation was indicated by a reduction in counts per minute.
Columns B, C and D represent different sources of human PBMC samples used.

[1] = tested on: TNF-alpha production from LPS-stimulated human PBMC; test: TNF-alpha production from LPS-stimulated human PBMC (sandwich ELISA); assay type: cell-based; conditions: FIG. 3, FIG. 5
Procedure: Bacterial lipopolysaccharide (LPS) stimulates the production of a variety of cytokines, including TNF-alpha, from human PBMC; these cytokines in turn influence the development of T cells, supporting a T helper 1 conducive milieu. Human PBMC prepared from whole blood by buoyant density centrifugation were resuspended in CTCM. […] Following incubation for 24 h at 37° C. in 5% CO2-air, the cell culture supernatants were collected and tested for TNF-alpha levels by ‘sandwich’ ELISA. Briefly, 96-well Nunc MaxiSorp (Life Technologies, Paisley, UK) plates were coated with 50 μl of a 2 μg/ml solution of mouse anti-human TNF-alpha monoclonal antibody (Pharmingen, UK) in 0.05 M carbonate/bicarbonate buffer, pH 9.6 overnight at 4° C. […] Following three washes with PBS-Tween, 50 μl of cell culture supernatants were added and incubated overnight at 4° C.; standard human TNF-alpha (Pharmingen, UK) ranging from 2000 to 31.25 pg/ml were included for each plate. […] Following four washes, the bound biotinylated antibody was detected with 50 μl of a 1:1,000 dilution of Streptavidin-peroxidase (Pharmingen, UK). At the end of an hour incubation at room temperature, the plates were thoroughly washed six times with PBS-Tween and the assay was developed by the addition of 100 μl of 0.1 mg/ml of tetramethyl benzidine subtrate (Sigma, Poole, UK) in 0.1 M sodium acetate buffer, pH 6 containing 0.03% H2O2. The enzyme reaction was stopped with 50 μl of 2.5 M H2SO4 after an incubation of 10 minutes at room temperature and the development was read at 450 nm with a spectrophotometric 96-well plate reader (Dynex).

murine spleen cells = conditions: literature report; cited from earlier work
[2] = tested on: TNF-a production by LPS-stimulated adherent murine peritoneal macrophages; conditions: literature report; cited from earlier work

Compound	effect on ConA induced splenocyte proliferation (cpm vs concentration) (murine splenocytes)	effect on proliferation of human PBMC stimulated with Concanavalin A (cpm vs concentration) (human PBMC)	effect on LPS induced TNF-α secretion by human PBMC [1]	further results
CCCCCCCCCC(=O)CC(=O)N[C@H]1CCOC1=O [Example 6, N-(3-Oxododecanoyl)-L-homoserine lactone]	inhibits splenocyte proliferation	inhibited proliferation of human PBMC	inhibited the secretion of the T helper 1-supporting cytokine TNF-α	effect on concavalin A mitogen stimulated proliferation of murine spleen cells (murine spleen cells): inhibiting; effect on TNF-a production by LPS-stimulated adherent murine peritoneal macrophages [2]: inhibiting
CCCCCCCCCCCC(=O)CC(=O)N[C@H]1CCOC1=O [Example 11, N-(3-Oxotetradecanoyl)-L-homoserine lactone]	–	inhibited proliferation of human PBMC	inhibited the secretion of the T helper 1-supporting cytokine TNF-α	–
CCCC(=O)CC(=O)N[C@H]1CCOC1=O [OHHL, N-(3-oxohexanoyl)-L-homoserine lactone]	–	–	difference in activity between OHHL and OdDHL is marked	–
CCCCCC(=O)CC(=O)N[C@H]1CCOC1=O [OOHL, N-(3-oxooctanoyl)-L-homoserine lactone]	failed to inhibit proliferation	–	–	–
N-(3-Hydroxy-9-tetradecenoyl)-L-homoserine lactone [Example 24]	–	–	–	IC50 (murine splenocytes; Experiment I, ConA 1 μg/ml, 100,000 spleen cells, read-out: IC50, inhibition of ConA induced murine splenocyte proliferation (column A)): 15 µM
